Results published in PMC10913051, “Bacterial Lactonases ZenA with Noncanonical Structural Features Hydrolyze the Mycotoxin Zearalenone” (ACS Catalysis, 2024).

Assays:
ZenAScfl H286Y = biological target: T1, ZenAScfl H286Y (Streptomyces coelicoflavus, UniProt A0A6N9UBA7, H286Y); assay: X-ray crystal structure, cocrystallized with […] ZEN, […] Å; type: binding
T1 construct: gene G3I46_00910; C-terminal 6xHis-tag

ZenARe [1] = biological target: T2, ZenARe; assay: X-ray crystal structure (cocrystallized with ZEN, […] Å); stopped-flow tryptophan fluorescence of product binding ([…] °C, KP,net); parameters: species or system Rhodococcus erythropolis
T2 construct: gene zenA; C-terminal 6xHis-tag

ZenARe [2] = biological target: T2, ZenARe; assay: stopped-flow tryptophan fluorescence ([…] °C, net dissociation constant of two-step binding); steady-state KM […]; parameters: species or system Rhodococcus erythropolis
[3] = biological target: the molecule itself; assay: SEC-MALS; size exclusion chromatography and multiangle light scattering of the 6xHis-tagged enzyme; conditions in the Supporting Information

T1 sequence (A0A6N9UBA7 entry or part of it H286Y): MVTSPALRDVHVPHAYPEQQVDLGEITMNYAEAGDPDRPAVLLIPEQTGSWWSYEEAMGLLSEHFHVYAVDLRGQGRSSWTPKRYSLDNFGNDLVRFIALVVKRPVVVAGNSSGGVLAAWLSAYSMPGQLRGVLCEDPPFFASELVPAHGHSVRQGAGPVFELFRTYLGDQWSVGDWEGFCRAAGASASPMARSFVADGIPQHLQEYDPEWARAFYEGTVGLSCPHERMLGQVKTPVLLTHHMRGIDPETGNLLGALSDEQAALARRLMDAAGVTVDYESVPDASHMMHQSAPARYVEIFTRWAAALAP

## C[C@H](O)CCCC(=O)CCC/C=C/c1cc(O)cc(O)c1C(=O)O [HZEN, (S,E)-2,4-dihydroxy-6-(10-hydroxy-6-oxoundec-1-en-1-yl)benzoic acid]
ZenAScfl H286Y
  X-ray crystal structure, cocrystallized with 5 mM ZEN, 1.53 Å: a subsequently calculated Polder map revealed a better fit of product HZEN in the active site
ZenARe [1]
  Kd: 10 ± 1 µM

## C[C@H]1CCCC(=O)CCC/C=C/c2cc(O)cc(O)c2C(=O)O1 [ZEN, (S,E)-14,16-dihydroxy-3-methyl-3,4,5,6,9,10-hexahydro-1H-benzo[c][1]oxacyclotetradecine-1,7(8H)-dione]
ZenARe [2]
  Kd: 0.21 ± 0.04 µM

B1: ZEN lactonase ZenARe of Rhodococcus erythropolis PFA D8-1 (enzyme)
chain: MAEEGTRSEAADAATQARQLPDSRNIFVSHRFPERQVDLGEVVMNFAEAGSPDNPALLLLPEQTGSWWSYEPVMGLLAENFHVFAVDIRGQGRSTWTPRRYSLDNFGNDLVRFIALVIKRPVVVAGNSSGGLLAAWLSAYAMPGQIRAALCEDAPFFASELVPAYGHSVLQAAGPAFELYRDFLGDQWSIGDWKGFVEAAKASPAKAMQLFPTPDEAPQNLKEYDPEWGRAFFEGTVALHCPHDRMLSQVKTPILITHHARTIDPETGELLGALSDLQAEHAQDIIRSAGVRVDYQSHPDALHMMHLFDPARYAEILTSWSATLPAND
[3]
  stoichiometry N: 2

B2: ZEN lactonase ZenA_(Scfl) of Streptomyces coelicoflavus (enzyme)
chain: MVTSPALRDVHVPHAYPEQQVDLGEITMNYAEAGDPDRPAVLLIPEQTGSWWSYEEAMGLLSEHFHVYAVDLRGQGRSSWTPKRYSLDNFGNDLVRFIALVVKRPVVVAGNSSGGVLAAWLSAYSMPGQLRGVLCEDPPFFASELVPAHGHSVRQGAGPVFELFRTYLGDQWSVGDWEGFCRAAGASASPMARSFVADGIPQHLQEYDPEWARVFYEGTVGLSCPHERMLGQVKTPVLLTHHMRGIDPETGNLLGALSDEQALRARRLMDSAGVTVDYESVPDASHMMHQSAPARYVEIFTRWAAALAP
[3]
  stoichiometry N: 4
